Read-outs that look alike come from different tables or passages of the source.
Assay: Biodistribution of 99mTc(N)(X)(DTC)+ heterocomplexes in rats
Format: in vivo, male Spraque-Dawley rats (SD rats)
Procedure: The biodistribution of a ^99mTc nitride heterocomplex represented by the general formula ^99mTc(N)(X)(Y) was investigated as follows: ^99mTc nitride heterocomplexes were synthesized using DTC as a bidentate ligand Y and each of the diphosphine compounds X described below, and the biodistribution in rats of each heterocomplex was investigated.
Before being injected into rats, the contents of the vial were diluted with phosphate buffer (0.1 mol/dm^3, pH=7.06) containing 10% Tween 80 ([…]). The complexes were stable in the solutions and in human plasma for at least 6 hours.
The biodistribution was measured using male Spraque-Dawley rats (SD rats) weighing 200 to 250 g. After 24 hours fasting, the rats were put under intraperitoneal anesthesia and given an injection in the jugular vein. Then, the organs were excised from the rats at different intervals of time, washed and then weighed. In addition, blood samples were collected and then weighed. The data on the biodistribution are expressed as the mean±significant difference of the percentage of radioactivity level per gram of the organ weight based on the dose of radioactivity, (% dose/g). The measurement was carried out using groups of 5 rats each.

- Bone % dose/g: 0.209 ± 0.01 % dose/g
- Heart % dose/g: 1.399 ± 0.08 % dose/g
- Liver % dose/g: 3.385 ± 0.81 % dose/g
- Spleen % dose/g: 2.739 ± 0.07 % dose/g
- Blood % dose/g (0 min after injection): 3.220 ± 0.45 % dose/g
- Brain % dose/g (0 min after injection): 0.120 ± 0.00 % dose/g
- Intestine % dose/g (0 min after injection): 0.906 ± 0.03 % dose/g
- Kidney % dose/g (0 min after injection): 5.702 ± 0.732 % dose/g
- Lung % dose/g (0 min after injection): 3.568 ± 0.94 % dose/g
- Muscle % dose/g (0 min after injection): 0.134 ± 0.01 % dose/g
- Stomach % dose/g (0 min after injection): 0.752 ± 0.09 % dose/g
- Blood % dose/g (2 min after injection): 1.025 ± 0.02 % dose/g
- Bone % dose/g (2 min after injection): 0.265 ± 0.04 % dose/g
- Brain % dose/g (2 min after injection): 0.065 ± 0.01 % dose/g
- Heart % dose/g (2 min after injection): 0.728 ± 0.04 % dose/g
- Intestine % dose/g (2 min after injection): 1.694 ± 0.18 % dose/g
- Kidney % dose/g (2 min after injection): 4.941 ± 0.60 % dose/g
- Liver % dose/g (2 min after injection): 7.723 ± 0.20 % dose/g
- Lung % dose/g (2 min after injection): 2.040 ± 0.234 % dose/g
- Muscle % dose/g (2 min after injection): 0.077 ± 0.00 % dose/g
- Spleen % dose/g (2 min after injection): 5.018 ± 0.02 % dose/g
- Stomach % dose/g (2 min after injection): 0.0603 ± 0.03 % dose/g
- Blood % dose/g (10 min after injection): 0.355 ± 0.03 % dose/g
- Bone % dose/g (10 min after injection): 0.268 ± 0.10 % dose/g
- Brain % dose/g (10 min after injection): 0.040 ± 0.00 % dose/g
- Heart % dose/g (10 min after injection): 0.736 ± 0.12 % dose/g
- Intestine % dose/g (10 min after injection): 2.861 ± 0.74 % dose/g
- Kidney % dose/g (10 min after injection): 6.910 ± 0.081 % dose/g
- Liver % dose/g (10 min after injection): 4.686 ± 0.89 % dose/g
- Lung % dose/g (10 min after injection): 1.481 ± 0.10 % dose/g
- Muscle % dose/g (10 min after injection): 0.064 ± 0.02 % dose/g
- Spleen % dose/g (10 min after injection): 5.334 ± 0.10 % dose/g
- Stomach % dose/g (10 min after injection): 0.517 ± 0.16 % dose/g
- Blood % dose/g (30 min after injection): 0.333 ± 0.03 % dose/g
- Bone % dose/g (30 min after injection): 0.301 ± 0.03 % dose/g
- Brain % dose/g (30 min after injection): 0.020 ± 0.00 % dose/g
- Heart % dose/g (30 min after injection): 0.652 ± 0.19 % dose/g
- Intestine % dose/g (30 min after injection): 7.254 ± 0.46 % dose/g
- Kidney % dose/g (30 min after injection): 7.542 ± 1.410 % dose/g
- Liver % dose/g (30 min after injection): 7.341 ± 0.38 % dose/g
- Lung % dose/g (30 min after injection): 1.015 ± 0.16 % dose/g
- Muscle % dose/g (30 min after injection): 0.103 ± 0.02 % dose/g
- Spleen % dose/g (30 min after injection): 5.131 ± 0.59 % dose/g
- Stomach % dose/g (30 min after injection): 1.135 ± 0.298 % dose/g
- Blood % dose/g (1 hr after injection): 0.19 ± 0.01 % dose/g
- Bone % dose/g (1 hr after injection): 0.294 ± 0.02 % dose/g
- Brain % dose/g (1 hr after injection): 0.025 ± 0.00 % dose/g
- Heart % dose/g (1 hr after injection): 0.534 ± 0.02 % dose/g
- Intestine % dose/g (1 hr after injection): 7.644 ± 1.01 % dose/g
- Kidney % dose/g (1 hr after injection): 6.713 ± 0.83 % dose/g
- Liver % dose/g (1 hr after injection): 7.436 ± 1.44 % dose/g
- Lung % dose/g (1 hr after injection): 1.011 ± 0.01 % dose/g
- Muscle % dose/g (1 hr after injection): 0.075 ± 0.01 % dose/g
- Spleen % dose/g (1 hr after injection): 5.073 ± 0.01 % dose/g
- Stomach % dose/g (1 hr after injection): 0.932 ± 0.12 % dose/g
- Blood % dose/g (2 hr after injection): 0.129 ± 0.02 % dose/g
- Bone % dose/g (2 hr after injection): 0.357 ± 0.08 % dose/g
- Brain % dose/g (2 hr after injection): 0.025 ± 0.00 % dose/g
- Heart % dose/g (2 hr after injection): 0.511 ± 0.05 % dose/g
- Intestine % dose/g (2 hr after injection): 6.442 ± 0.59 % dose/g
- Kidney % dose/g (2 hr after injection): 6.799 ± 1.348 % dose/g
- Liver % dose/g (2 hr after injection): 4.061 ± 0.64 % dose/g
- Lung % dose/g (2 hr after injection): 0.962 ± 0.02 % dose/g
- Muscle % dose/g (2 hr after injection): 0.102 ± 0.02 % dose/g
- Spleen % dose/g (2 hr after injection): 5.507 ± 0.84 % dose/g
- Stomach % dose/g (2 hr after injection): 1.701 ± 0.34 % dose/g
- Blood % dose/g (4 hr after injection): 0.087 ± 0.00 % dose/g
- Bone % dose/g (4 hr after injection): 0.329 ± 0.01 % dose/g
- Brain % dose/g (4 hr after injection): 0.018 ± 0.00 % dose/g
- Heart % dose/g (4 hr after injection): 0.506 ± 0.04 % dose/g
- Intestine % dose/g (4 hr after injection): 4.054 ± 0.39 % dose/g
- Kidney % dose/g (4 hr after injection): 7.471 ± 0.03 % dose/g
- Liver % dose/g (4 hr after injection): 1.784 ± 0.25 % dose/g
- Lung % dose/g (4 hr after injection): 0.670 ± 0.09 % dose/g
- Muscle % dose/g (4 hr after injection): 0.08 ± 0.00 % dose/g
- Spleen % dose/g (4 hr after injection): 5.055 ± 0.02 % dose/g
- Stomach % dose/g (4 hr after injection): 1.220 ± 0.150 % dose/g
Compound: COCCN1CC[P+](c2ccccc2)(c2ccccc2)[99Tc-2]2(#[N])([NH]N(C)C(SC)=[S+]2)[P+](c2ccccc2)(c2ccccc2)CC1 [^99mTc(N)(PNP2)(DTC)^+]
